According to patent US9399649B2, “Compounds for treating spinal muscular atrophy” (PTC Therapeutics Inc., priority 2012, dated 2016):

Columns and labels:
Smn protein [1] = assay: Smn protein assay in cultured cells (SMN HTRF); assay type: cell-based, human; conditions: for Smn protein expression: SMA Type 1 patient fibroblast cells, 48 hour, SMN HTRF assay, FIG. 8; for EC1.5x for Smn protein expression / maximum fold (Fold) increase of Smn protein: SMA patient fibroblast cells (GM03813), 48 hours; for EC1.5x for Smn protein expression: 7-point concentration curve, concentration producing 1.5 times Smn protein vs DMSO vehicle; for maximum fold (Fold) increase of Smn protein: 7-point concentration data, relative to vehicle control
Summary of the method: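 Smn protein measured by HTRF (anti-SMN d2/kryptate) in lysates of SMA patient fibroblasts after 48 h compound treatment, 7-point 3.16-fold dilutions, triplicates. The 665/620 nm ratio is blank-corrected to ΔF, then divided by the vehicle ΔF to give fold increase.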

Smn protein [2] = assay: Smn protein assay in tissues of adult C/C-allele SMA mice; assay type: in vivo; conditions: 10 mg/kg BID orally for 10 days, brain, spinal cord, muscle and liver, relative to vehicle group, FIG. 11
Experimental: This Smn protein assay compares tissues from test compound treated mice with those from DMSO vehicle treated mice to determine the increase in levels of Smn protein produced from the human SMN2 gene.
(§1) The tissue samples in Safe-Lock tubes are weighed and the volume of RIPA buffer containing the protease inhibitor cocktail is added based on the weight to volume ratios for each type of tissue: Brain (50 mgmL), Muscle (50 mgmL) and Spinal Cord (25 mgmL).
(§2) Tissues are homogenized using the TissueLyzer by bead milling. 5 mm stainless steel beads are added to the sample and shaken vigorously for 5 minutes at 30 Hz in the TissueLyzer. […] Fluorescence for each well of the plate at 665 nm and 620 nm is measured on an EnVision multilabel plate reader (Perkin-Elmer). The total protein in the tissue homogenate is measured using the BCA assay according to the manufacturer's protocol.
(§3) The normalized fluorescence signal is calculated for each sample, Blank and vehicle control well by dividing the signal at 665 nm by the signal at 620 nm. Normalizing the signal accounts for possible fluorescence quenching due to the matrix effect of the tissue homogenate. […] The ΔF value for each tissue sample well is divided by the total protein quantity (determined using the BCA assay) for that tissue sample. […]

Smn protein [3] = assay: Smn protein levels in tissues of Δ7 SMA mice of the survival study; assay type: in vivo; conditions: Compound 65 until PND 144, Compound 69 until PND 80 and PND 83, relative to vehicle treated and age-matched heterozygous mice, FIG. 16
Experimental: as §1
as §2, with “TissueLyzer. The samples are then centrifuged for 20 minutes at 14,000×g in a microcentrifuge and the homogenates transferred to the PCR plate. The homogenates are diluted in RIPA buffer to approximately 1 mgmL for HTRF and approximately 0.5 mgmL for total protein measurement using the BCA protein assay.” for “TissueLyzer.”
as §3

Structure (SMILES) | Smn protein expression (Smn protein [1]) | EC1.5x for Smn protein expression (Smn protein [1]) | maximum fold (Fold) increase of Smn protein (Smn protein [1]) | total protein normalized Smn level in tissues (Smn protein [2]) | Smn protein expression in brain and muscle tissues (Smn protein [3])
Cc1cn2cc(-c3cc4ccc(N5CCN(C)CC5)cc4c(=O)o3)nc2c(C)n1 [Cpd 65, 3-(6,8-dimethylimidazo[1,2-a]pyrazin-2-yl)-7-(4-methylpiperazin-1-yl)-1H-isochromen-1-one] | dose dependent increase in Smn protein expression | **** (an EC1.5×≦0.3 nM is indicated by four stars (****)) | ***** (a fold increase >1.65 is indicated by five stars (*****)) | increased in brain, spinal cord, muscle and liver tissues | increased Smn protein expression in brain and muscle tissues
Cc1cn2cc(-c3cc4ccc(N5CCN6CCC[C@H]6C5)cc4c(=O)o3)nc2c(C)n1 [Cpd 69, 3-(6,8-dimethylimidazo[1,2-a]pyrazin-2-yl)-7-[(8aS)-hexahydropyrrolo[1,2-a]pyrazin-2(1H)-yl]-1H-isochromen-1-one] | dose dependent increase in Smn protein expression | **** (an EC1.5×≦0.3 nM is indicated by four stars (****)) | ***** (a fold increase >1.65 is indicated by five stars (*****)) | increased in brain, spinal cord, muscle and liver tissues | increased Smn protein expression in brain and muscle tissues
